Laboratory results published in ChEMBL document CHEMBL5608199, “Quaternized antimicrobial peptide mimics based on harmane as potent anti-MRSA agents by multi-target mechanism covering cell wall, cell membrane and intracellular targets” (Eur J Med Chem, 2024).
Converted amounts (≈) assume the structure as drawn. The source made the active and inactive calls. The rule behind the calls is not given here.

Assays:
Escherichia coli = experiment: Antibacterial activity against Escherichia coli ATCC 8739 incubated for 18 hrs by two fold serial broth dilution method; format: functional
Staphylococcus aureus [1] = experiment: Antibacterial activity against methicillin-resistant Staphylococcus aureus ATCC 33591 incubated for 18 hrs by two fold serial broth dilution method; format: functional
Staphylococcus aureus [2] = experiment: Antibacterial activity against Staphylococcus aureus CMCC 26003 incubated for 18 hrs by two fold serial broth dilution method; format: functional
Staphylococcus aureus [3] = experiment: Antibacterial activity against methicillin-resistant Staphylococcus aureus CGMCC 1.12409 incubated for 18 hrs by two fold serial broth dilution method; format: functional
Staphylococcus aureus [4] = experiment: Antibacterial activity against Staphylococcus aureus ATCC 29213 incubated for 18 hrs by two fold serial broth dilution method; format: functional
Staphylococcus aureus [5] = experiment: Antibacterial activity against methicillin-resistant Staphylococcus aureus ATCC 43300 incubated for 18 hrs by two fold serial broth dilution method; format: functional
Staphylococcus aureus [6] = experiment: Drug resistance, ratio of MIC for methicillin-resistant Staphylococcus aureus ATCC 33591 after 12 passages to MIC for methicillin-resistant Staphylococcus aureus ATCC 33591 during first exposure; format: functional
Staphylococcus aureus [7] = experiment: Drug resistance, ratio of MIC for methicillin-resistant Staphylococcus aureus ATCC 33591 after 10 passages to MIC for methicillin-resistant Staphylococcus aureus ATCC 33591 during first exposure; format: functional
Staphylococcus aureus [8] = experiment: Drug resistance, ratio of MIC for methicillin-resistant Staphylococcus aureus ATCC 33591 after 9 passages to MIC for methicillin-resistant Staphylococcus aureus ATCC 33591 during first exposure; format: functional
Staphylococcus aureus [9] = experiment: Antibacterial activity against methicillin-resistant Staphylococcus aureus ATCC 33591 infected in cyclophosphamide treated female KM mouse skin infection model assessed as reduction in number of bacterial clones in skin at 3.3 mg/kg administered for 4 days and measured on day 5; format: functional, organism-based; details: time 5.0 day
Staphylococcus aureus [10] = experiment: Antibacterial activity against methicillin-resistant Staphylococcus aureus ATCC 33591 infected in cyclophosphamide treated female KM mouse skin infection model assessed as reduction in inflammatory cell infiltration at 3.3 mg/kg administered for 4 days and measured on day 5 by H and E staining based analysis; format: functional, organism-based; details: time 5.0 day

SMILES	MIC (Escherichia coli) [µg/mL]	MIC (Staphylococcus aureus [1]) [µg/mL]	MIC (Staphylococcus aureus [2]) [µg/mL]	MIC (Staphylococcus aureus [3]) [µg/mL]	MIC (Staphylococcus aureus [4]) [µg/mL]	MIC (Staphylococcus aureus [5]) [µg/mL]	Ratio (Staphylococcus aureus [6])	Ratio (Staphylococcus aureus [7])	Ratio (Staphylococcus aureus [8])	Activity (Staphylococcus aureus [9])	Activity (Staphylococcus aureus [10])
Cc1c2[nH]c3ccccc3c2cc[n+]1C.[I-]	> 128	> 128	> 128	> 128	> 128	> 128	–	–	–	–	–
[2H]C([2H])([2H])[n+]1ccc2c([nH]c3ccccc32)c1C.[I-]	> 128	> 128	> 128	> 128	> 128	> 128	–	–	–	–	–
Cc1c2c(cc[n+]1C)c1ccccc1n2CC[N+](C)(C)C.[I-].[I-]	> 128	> 128	> 128	> 128	> 128	> 128	–	–	–	–	–
Cc1nccc2c3ccccc3n(CCCCCn3c4ccccc4c4ccnc(C)c43)c12	> 128	> 128	> 128	> 128	> 128	> 128	–	–	–	–	–
CC[N+](C)(CC)CCn1c2ccccc2c2cc[n+](C)c(C)c21.[I-].[I-]	> 128	> 128	> 128	> 128	> 128	> 128	–	–	–	–	–
CC[n+]1ccc2c3ccccc3n(CC[N+](C)(C)CC)c2c1C.[Br-].[Br-]	> 128	> 128	> 128	> 128	> 128	> 128	–	–	–	–	–
Cc1c2c(cc[n+]1C)c1ccccc1n2CCCCCCCn1c2ccccc2c2cc[n+](C)c(C)c21.[I-].[I-]	16	0.5	0.5	1	8	2	–	–	–	–	–
CCn1cc(C(=O)O)c(=O)c2cc(F)c(N3CCNCC3)cc21 [NORFLOXACIN]	–	–	–	–	–	–	2	>16	16	–	–
CCCCC[n+]1ccc2c3ccccc3n(CC[N+](C)(C)CCCCC)c2c1C.[Br-].[Br-]	> 128	> 128	> 128	> 128	> 128	> 128	–	–	–	–	–
Cc1nccc2c3ccccc3n(CCCCCCn3c4ccccc4c4ccnc(C)c43)c12	> 128	> 128	> 128	> 128	> 128	> 128	–	–	–	–	–
[2H]C([2H])([2H])[n+]1ccc2c3ccccc3n(CC[N+](CC)(CC)C([2H])([2H])[2H])c2c1C.[I-].[I-]	> 128	> 128	> 128	> 128	> 128	> 128	–	–	–	–	–
Cc1nccc2c3ccccc3n(CCCCCCCCn3c4ccccc4c4ccnc(C)c43)c12	> 128	> 128	> 128	> 128	> 128	> 128	–	–	–	–	–
CCCC[n+]1ccc2c3ccccc3n(CCN(CC)CC)c2c1C.[Br-]	> 128	64	64	64	> 128	128	–	–	–	–	–
CCC[n+]1ccc2c3ccccc3n(CC[N+](C)(C)CCC)c2c1C.[Br-].[Br-]	> 128	> 128	> 128	> 128	> 128	> 128	–	–	–	–	–
CCCCC[n+]1ccc2c3ccccc3n(CCN(CC)CC)c2c1C.[Br-]	128	32	16	64	64	32	–	–	–	–	–
Cc1nccc2c3ccccc3n(CCCCCCCn3c4ccccc4c4ccnc(C)c43)c12	> 128	> 128	> 128	> 128	> 128	> 128	–	–	–	–	–
CCCC[n+]1ccc2c3ccccc3n(CCN(C)C)c2c1C.[Br-]	> 128	128	128	> 128	> 128	> 128	–	–	–	–	–
CC[n+]1ccc2c3ccccc3n(CC[N+](CC)(CC)CC)c2c1C.[Br-].[Br-]	> 128	> 128	> 128	> 128	> 128	> 128	–	–	–	–	–
CN[C@H](CC(C)C)C(=O)N[C@H]1C(=O)N[C@@H](CC(N)=O)C(=O)N[C@H]2C(=O)N[C@H]3C(=O)N[C@H](C(=O)N[C@H](C(=O)O)c4cc(O)cc(O)c4-c4cc3ccc4O)[C@H](O)c3ccc(c(Cl)c3)Oc3cc2cc(c3O[C@@H]2O[C@H](CO)[C@@H](O)[C@H](O)[C@H]2O[C@H]2C[C@](C)(N)[C@H](O)[C@H](C)O2)Oc2ccc(cc2Cl)[C@H]1O [VANCOMYCIN]	> 128	–	0.25 (≈ 0.173 µM)	–	–	–	–	–	–	Active	Active
[2H]C([2H])([2H])[n+]1ccc2c3ccccc3n(CC[N+](C)(C)C([2H])([2H])[2H])c2c1C.[I-].[I-]	> 128	> 128	> 128	> 128	> 128	> 128	–	–	–	–	–
CCC[n+]1ccc2c3ccccc3n(CCN(CC)CC)c2c1C.[Br-]	> 128	128	64	> 128	> 128	> 128	–	–	–	–	–
Cc1nccc2c3ccccc3n(CCN(C)C)c12	64 (≈ 253 µM)	> 128	> 128	> 128	> 128	> 128	–	–	–	–	–
CCN(CC)CCn1c2ccccc2c2ccnc(C)c21	128 (≈ 455 µM)	128 (≈ 455 µM)	128 (≈ 455 µM)	> 128	128 (≈ 455 µM)	128 (≈ 455 µM)	–	–	–	–	–
CCCC[n+]1ccc2c3ccccc3n(CC[N+](C)(C)CCCC)c2c1C.[Br-].[Br-]	> 128	128	128	> 128	> 128	> 128	–	–	–	–	–
Cc1nccc2c3ccccc3n(CCCCn3c4ccccc4c4ccnc(C)c43)c12	> 128	> 128	> 128	> 128	> 128	> 128	–	–	–	–	–
